From patent publication US20240238378A1, “METHODS AND CCK-B RECEPTOR AGONISTS FOR TREATING TINNITUS” (City University of Hong Kong, priority 2023, published 2024)

How the values were obtained:
CCKBR = molecular target: T1, CCKBR (Homo sapiens, UniProt P32239); assay: Calcium response (Fluo-8 No Wash Calcium Assay Kit) in GPCR-overexpressing CHO cells; format: cell-based
T1 construct: expressed in transfected cells; host or cells: CHO cells (CHO-CCKBR)
T1 sequence (P32239 1-447): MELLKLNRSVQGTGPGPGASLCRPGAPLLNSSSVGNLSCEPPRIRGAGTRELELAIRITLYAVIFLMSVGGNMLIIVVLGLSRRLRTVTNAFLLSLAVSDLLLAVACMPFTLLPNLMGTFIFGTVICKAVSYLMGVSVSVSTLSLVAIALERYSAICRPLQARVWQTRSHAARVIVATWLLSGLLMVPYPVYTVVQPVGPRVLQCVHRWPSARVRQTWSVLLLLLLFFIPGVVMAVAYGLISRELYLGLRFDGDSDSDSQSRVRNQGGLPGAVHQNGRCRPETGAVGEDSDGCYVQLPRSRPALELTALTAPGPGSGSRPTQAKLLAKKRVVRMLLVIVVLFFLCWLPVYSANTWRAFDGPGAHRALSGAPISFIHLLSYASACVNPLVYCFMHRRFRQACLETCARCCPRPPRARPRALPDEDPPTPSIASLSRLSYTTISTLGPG
Procedure: In vitro screening system, HT-267 have been tested and measured calcium response by Fluo-8 No Wash Calcium Assay Kit in GPCRs overexpressed CHO cells, including CHO-CCKBR, CHO-CCKAR, CHO-HTR2B cells. These tests and measurements are performed as described in CN 113929737 A by Tortorella, et al., assigned to Regenerative Medicine and Health Innovation Centre Co., Ltd., et al., published on Jan. 14, 2022.

[1] = test system: auditory thalamocortical pathway; assay: HFS-induced thalamocortical LTP in CCK-KO mice with infusion into ACx (fEPSP slope); format: in vivo; details: HT-267 5 μM, 0.5 μl into ACx, n=6, p<0.0001, FIG. 5C
Description: The electrical stimulation is generated by an ISO-Flex isolator (A.M.P.I., Israel), which is controlled by a multifunction processor (RX6, TDT). The electrical current pulses for baseline test are 0.5 ms, 50-150 μA and presented every 10 s. The theta burst stimulation (TBS) contains four trails of 10 bursts at 5 Hz with the interval of 10 s between the trails, and each burst consists of 5 pulses at 100 Hz.
[…], two customized microelectrode arrays with four tungsten electrodes each, impedance: 0.5-1 MS2 (recording), and 200-500 kΩ (ES) (FHC, U.S.), are used for the auditory cortical neuronal activity recording and medial geniculate body ventral division (MGv) electrical stimulation and monitoring, respectively. […] 70 dB, 100 ms, noise bursts are presented every 10 s during the insertion of the electrode arrays, and neuronal activities are monitored as the electrode arrays are lowered until robust noise responses are achieved on both arrays. The final stimulating and recording positions are determined by maximizing the cortical field excitatory postsynaptic potential (fEPSP) amplitude triggered by the electrical stimulation in MGv.
The fEPSPs, which are elicited by 0.5 ms electrical current pulses, are amplified (×1000) and filtered (1 Hz-5 kHz), recorded with a 25 kHz sampling rate, and stored in a PC by OpenEx software (TDT). Before the recording, an input-output function is measured. […]

[2] = test system: noise-induced tinnitus mice; assay: Tinnitus mouse model, gap pre-pulse inhibition of the acoustic startle reflex (GPIAS) with sound therapy; format: in vivo; details: 0.2 mg/kg intraperitoneal, one week (4 treatment days), combined with sound exposure; 12.6k, 16k, 20.1k, 28.7k Hz; FIGS. 6F-6I
Procedure: HT-267 is tested in the tinnitus mouse model. […] 7-9 weeks after tinnitus induction, more than 50% of mice developed tinnitus.
The inventors use the standard approach for assessing tinnitus in a rodent model, namely gap pre-pulse inhibition of the acoustic startle reflex (GPIAS) (FIGS. 2A-B). […] (Upper) Background sound and startle speakers are placed 10 and 13 cm respectively, from the point of microphone calibration. Signals from three force sensors placed under the testing tube in a triangular formation are averaged in a custom-made circuit and transmitted to TDT digital signal processor (DSP) for further analysis. (Lower) Timeline of a single GPIAS testing session. A GPIAS testing session consists of 3 blocks, lasting 36 minutes in total. The first block is the acclimation phase, lasting five minutes, where white noise is played from the “Cue” speaker for 5 minutes. Block two is the startle acclimation phase. To prevent outlier trials at the beginning of the testing session, 10 startle-only trials without any background sound are delivered to the animal. After block two, block three takes place, lasting 30 minutes. The 30 minute-long GPIAS session consisting of 300 individual trials (Five different background (BG) frequencies tested, for both GAP and NO_GAP conditions with 30 repeats for each BG frequency×GAP/NO_GAP condition pair). Each square represents one minute in the timeline. […]

[3] = test system: auditory thalamocortical pathway; assay: Thalamocortical LTP induction by CCK injection in the auditory cortex with low-frequency stimulation of MGv (fEPSP slope); format: in vivo; details: CCK 1 μM, 1 μl into ACx, n=8, p<0.001, FIG. 3E
[4] = elimination half-life (t1/2) in plasma

## CSCC[C@H](NC(=O)C(N)Cc1c[nH]c2ccccc12)C(=O)NC(CC(=O)O)C(=O)N[C@@H](Cc1ccccc1)C(N)=O (some centres unmarked) [CCK-4, Cholecystokinin-4, reference compound]
In vivo; [4]
  half-life: ~13 min

## CSCCC(NC(=O)[C@H](N)Cc1c[nH]c2ccccc12)C(=O)N[C@@H](CC(=O)O)C(=O)N[C@@H](Cc1cccc(Br)c1)C(N)=O (some centres unmarked) [HT-267]
CCKBR; CHO-CCKBR cells
  EC50: ~0.05 nM
CCKBR; CHO-CCKBR vs CHO-CCKAR and CHO-HTR2B cells, FIG. 1
  receptor specificity of calcium response: specifically activates CCKBR
In vivo
  Tmax: ~1.98 min
  blood-brain barrier passage: passes BBB easily
  uptake rate of brain: about 21.89%
In vivo; [4]
  half-life: ~105 min
In vivo; t1/2 in brain
  half-life: ~522 min
[1]
  rescue of HFS-induced thalamocortical LTP (normalized fEPSP slope): abolished LTP could be rescued
[2]
  change of GPIAS ratio pre- vs post-treatment: significantly reduces

## cholecystokinin [CCK]
[3]
  normalized fEPSP slope after injection and LFS: lead to an enhancement in fEPSP
